Test results published in patent US8895733B2 (Novartis AG, priority 2010, dated 2014).

Target: T1, Nav 1.7 (Homo sapiens, UniProt Q15858)
T1 construct: expressed in transfected cells
Assay: Whole-cell voltage clamp electrophysiology, automated patch clamp (marker c in Table of Examples)
Format: cell-based
Settings: marker c = Automated patch clamp data; read-out: Nav 1.7 activity
Excerpt: a.IonWork Quattro data, b=Manual patch clamp data, c=Automated patch clamp data M=Method
Whole-Cell Voltage Clamp Electrophysiology Assay
Patch-clamp electrophysiology is considered the gold standard technique for investigation of ion channel function and pharmacology. Using this method, sodium channel currents can be measured in cells, which stably (or transiently) express the sodium channel subtype of interest. Application of compounds during such experiments provides a functional measure of the activity and potency of compounds affecting the ion channel of interest.
Electrophysiological studies can be performed using automated or manual patch-clamp techniques. Automated patch-clamp instruments suitable for this work include the Ion Works HT (MDS), Ion Works Quattro (MDS), PatchLiner (Nanion technologies), Port-A-Patch (Nanion technologies), QPatch (Sophion) or any other suitable platform.
For recording in automated patch-clamp instruments, cells expressing the voltage-gated sodium channel subtype of interest are dispensed in appropriate chips (plates with more than one recording chambers each containing one or more apertures to generate whole-cell patches), as provided by the manufacturer. Typically, the whole-cell perforated patch configuration is used for probing the pharmacology of compounds in automated patch-clamp electrophysiology on sodium channels. Extracellular and intracellular buffers for such experiments are composed according to the literature, or according to the instructions provided by the manufacturer of the instruments. Test solutions, which contain the compounds to be tested, are applied to the cells expressing the sodium channel of interest by a pipetting system, typically integrated into the robots.
A suitable voltage stimulus protocol is used to activate voltage-gated sodium channel proteins of interest. A typical stimulus protocol may consist of sweeps of sequential voltage pulses starting from a holding potential (i.e. −65 mV), to a more positive and depolarising test pulse potential (i.e. −10 mV) and finally to a more negative and hyperpolarising potential (i.e. −100 mV). According to the biophysics of the voltage-gated ion channel of interest and interest in channel configuration the voltages and durations of the pulses as well as the overall frequency of sweeps applied might vary. Accordingly, a stimulus protocol was designed to assess compounds due to their potential to block NaV1.7 channels primarily in inactivated state. Selectivity over other voltage-gated sodium channel members was assessed by protocols that reflect the native function of the channels (i.e. heart rate or firing of neurons).

T1 sequence (Q15858 whole entry): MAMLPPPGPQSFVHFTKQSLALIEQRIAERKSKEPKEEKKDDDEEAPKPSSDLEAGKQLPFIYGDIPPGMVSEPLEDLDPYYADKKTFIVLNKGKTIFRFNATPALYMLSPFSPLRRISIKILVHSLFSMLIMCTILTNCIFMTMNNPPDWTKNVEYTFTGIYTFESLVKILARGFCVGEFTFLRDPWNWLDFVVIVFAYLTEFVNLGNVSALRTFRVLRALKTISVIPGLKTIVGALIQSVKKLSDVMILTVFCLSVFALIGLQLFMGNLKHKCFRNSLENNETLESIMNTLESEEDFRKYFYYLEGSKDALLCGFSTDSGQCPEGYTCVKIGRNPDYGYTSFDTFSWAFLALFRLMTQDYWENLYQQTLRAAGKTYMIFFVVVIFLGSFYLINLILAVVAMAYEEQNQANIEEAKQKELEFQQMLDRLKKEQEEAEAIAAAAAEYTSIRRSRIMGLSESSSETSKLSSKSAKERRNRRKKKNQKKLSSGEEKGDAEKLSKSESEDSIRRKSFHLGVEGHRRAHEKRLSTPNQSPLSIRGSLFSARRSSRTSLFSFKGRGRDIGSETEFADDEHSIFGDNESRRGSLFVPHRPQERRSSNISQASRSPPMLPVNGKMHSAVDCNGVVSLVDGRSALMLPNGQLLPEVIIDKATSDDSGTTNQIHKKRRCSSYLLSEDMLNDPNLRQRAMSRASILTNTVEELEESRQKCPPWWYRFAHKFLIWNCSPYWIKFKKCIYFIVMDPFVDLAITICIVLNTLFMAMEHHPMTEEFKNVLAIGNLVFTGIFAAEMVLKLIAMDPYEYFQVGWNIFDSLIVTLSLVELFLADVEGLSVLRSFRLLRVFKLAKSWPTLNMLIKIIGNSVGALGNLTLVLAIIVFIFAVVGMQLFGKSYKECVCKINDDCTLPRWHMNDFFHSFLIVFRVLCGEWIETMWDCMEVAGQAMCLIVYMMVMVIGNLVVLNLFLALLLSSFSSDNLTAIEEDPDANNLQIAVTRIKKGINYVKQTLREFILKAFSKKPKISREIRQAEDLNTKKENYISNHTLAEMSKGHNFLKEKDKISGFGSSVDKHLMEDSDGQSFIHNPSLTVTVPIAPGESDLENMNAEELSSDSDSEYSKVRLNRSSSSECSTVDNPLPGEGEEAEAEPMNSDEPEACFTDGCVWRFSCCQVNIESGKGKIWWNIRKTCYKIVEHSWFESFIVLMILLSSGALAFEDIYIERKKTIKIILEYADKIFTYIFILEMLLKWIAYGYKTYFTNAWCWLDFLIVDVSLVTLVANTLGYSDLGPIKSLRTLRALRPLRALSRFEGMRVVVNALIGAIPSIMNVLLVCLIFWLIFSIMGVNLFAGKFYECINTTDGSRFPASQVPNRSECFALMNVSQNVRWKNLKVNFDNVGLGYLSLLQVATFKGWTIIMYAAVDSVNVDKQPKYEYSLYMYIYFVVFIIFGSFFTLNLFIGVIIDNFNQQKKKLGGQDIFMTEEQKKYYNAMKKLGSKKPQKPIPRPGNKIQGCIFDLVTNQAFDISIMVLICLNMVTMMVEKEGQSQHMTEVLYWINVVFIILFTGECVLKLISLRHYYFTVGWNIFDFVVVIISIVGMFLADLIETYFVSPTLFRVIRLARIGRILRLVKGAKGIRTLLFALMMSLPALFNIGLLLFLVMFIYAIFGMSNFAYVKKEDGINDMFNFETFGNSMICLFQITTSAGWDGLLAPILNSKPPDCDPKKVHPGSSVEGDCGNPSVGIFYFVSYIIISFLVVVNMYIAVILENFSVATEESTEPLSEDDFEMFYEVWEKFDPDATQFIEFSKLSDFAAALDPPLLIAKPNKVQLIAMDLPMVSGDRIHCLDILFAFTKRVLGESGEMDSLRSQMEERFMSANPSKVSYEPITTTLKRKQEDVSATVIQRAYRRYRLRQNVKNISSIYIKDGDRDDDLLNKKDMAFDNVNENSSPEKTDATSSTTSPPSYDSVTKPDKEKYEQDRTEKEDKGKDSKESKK

| IC50 [µM] | Structure (SMILES) |
| --- | --- |
| 1.39 | CN(c1ccccc1)c1nc(N)nc(-c2noc(C3CC(Oc4ccccc4)C3)n2)n1 (mixture of isomers) [Example 261, 2-N-Methyl-6-[5-(3-phenoxycyclobutyl)-1,2,4-oxadiazol-3-yl]-2-N-phenyl-1,3,5-triazine-2,4-diamine] |

Same assay, conditions: marker c: Automated patch clamp data; read-out: Nav 1.7 activity

| Structure (SMILES) | IC50 [µM] |
| --- | --- |
| CN(c1ccccc1)c1nc(N)nc(-c2noc(C3C[C@H]4CC[C@@H](C3)N4CCC(F)(F)F)n2)n1 (mixture of isomers) [Example 145, N-Methyl-N-phenyl-6-{5-[(1R,3R,5S)-8-(3,3,3-trifluoro-propyl)-8-aza-bicyclo[3.2.1]oct-3-yl]-[1,2,4]oxadiazol-3-yl}-[1,3,5]triazine-2,4-diamine] | 1.14 |
| Cc1ccccc1-c1nc(-c2nc(N)nc(N(C)c3ccccc3)n2)no1 [Example 27, N-Methyl-N-phenyl-6-(5-o-tolyl-[1,2,4]oxadiazol-3-yl)-[1,3,5]triazine-2,4-diamine] | 0.923 |
| Cc1cccc(-c2nc(-c3nc(N)nc(N(C)c4ccccc4)n3)no2)c1 [Example 28, N-Methyl-N-phenyl-6-(5-m-tolyl-[1,2,4]oxadiazol-3-yl)-[1,3,5]triazine-2,4-diamine] | 0.955 |
| Cc1ccc(-c2nc(-c3nc(N)nc(N(C)c4ccccc4)n3)no2)cc1 [Example 29, N-Methyl-N-phenyl-6-(5-p-tolyl-[1,2,4]oxadiazol-3-yl)-[1,3,5]triazine-2,4-diamine] | 1.38 |
| CC(C)N(c1ccccc1)c1nc(N)nc(-c2noc(-c3ccco3)n2)n1 [Example 30, 6-(5-Furan-2-yl-[1,2,4]oxadiazol-3-yl)-N-isopropyl-N-phenyl-[1,3,5]triazine-2,4-diamine] | 0.933 |
| CN(c1ccccc1)c1nc(N)nc(-c2noc(Cc3ccccc3)n2)n1 [Example 31, 6-(5-Benzyl-[1,2,4]oxadiazol-3-yl)-N-methyl-N-phenyl-[1,3,5]triazine-2,4-diamine] | 0.363 |
| Nc1nc(Nc2ccccc2)nc(-c2noc(-c3cc[nH]n3)n2)n1 [Example 40, N-Phenyl-6-[5-(1H-pyrazol-3-yl)-[1,2,4]oxadiazol-3-yl]-[1,3,5]triazine-2,4-diamine] | 2.72 |
| CN(c1ccccc1)c1nc(N)nc(-c2noc(-c3ncccc3OCC(F)(F)F)n2)n1 [Example 42, N-Methyl-N-phenyl-6-{5-[3-(2,2,2-trifluoro-ethoxy)-pyridin-2-yl]-[1,2,4]oxadiazol-3-yl}-[1,3,5]triazine-2,4-diamine] | 1.41 |
| Cc1cc(-c2nc(-c3nc(N)nc(N(C)c4ccccc4)n3)no2)no1 [Example 44, N-Methyl-6-[5-(5-methyl-isoxazol-3-yl)-[1,2,4]oxadiazol-3-yl]-N-phenyl-[1,3,5]triazine-2,4-diamine] | 2.72 |
| CN(c1ccccc1)c1nc(N)nc(-c2noc(N3CCOCC3)n2)n1 [Example 45, N-Methyl-6-(5-morpholin-4-yl-[1,2,4]oxadiazol-3-yl)-N-phenyl-[1,3,5]triazine-2,4-diamine] | 3.52 |
| COc1ccc(-c2nc(-c3nc(N)nc(N(C)c4ccccc4)n3)no2)cn1 [Example 47, 6-[5-(6-Methoxy-pyridin-3-yl)-[1,2,4]oxadiazol-3-yl]-N-methyl-N-phenyl-[1,3,5]triazine-2,4-diamine] | 1.92 |
| Cc1cc(-c2nc(-c3nc(N)nc(N(C)c4ccccc4)n3)no2)oc1C [Example 49, 6-[5-(4,5-Dimethyl-furan-2-yl)-[1,2,4]oxadiazol-3-yl]-N-methyl-N-phenyl-[1,3,5]triazine-2,4-diamine] | 1.23 |
| CN(c1ccccc1)c1nc(N)nc(-c2noc(-c3ncccc3N)n2)n1 [Example 51, 6-[5-(3-Amino-pyridin-2-yl)-[1,2,4]oxadiazol-3-yl]-N-methyl-N-phenyl-[1,3,5]triazine-2,4-diamine] | 3.47 |
| CN(c1ccccc1)c1nc(N)nc(-c2noc(-c3cccnc3N)n2)n1 [Example 53, 6-[5-(2-Amino-pyridin-3-yl)-[1,2,4]oxadiazol-3-yl]-N-methyl-N-phenyl-[1,3,5]triazine-2,4-diamine] | 0.703 |
| CN(c1ccccc1)c1nc(N)nc(-c2noc(-c3ccc(N)nc3)n2)n1 [Example 55, 6-[5-(6-Amino-pyridin-3-yl)-[1,2,4]oxadiazol-3-yl]-N-methyl-N-phenyl-[1,3,5]triazine-2,4-diamine] | 4.91 |
| CN(c1ccccc1)c1nc(N)nc(-c2noc(C3CCCCO3)n2)n1 (stereo not drawn) [Example 56, N-Methyl-N-phenyl-6-[5-(tetrahydro-pyran-2-yl)-[1,2,4]oxadiazol-3-yl]-[1,3,5]triazine-2,4-diamine] | 4.58 |
| CN(c1ccccc1)c1nc(N)nc(-c2noc(C3CCOCC3)n2)n1 [Example 57, N-Methyl-N-phenyl-6-[5-(tetrahydro-pyran-4-yl)-[1,2,4]oxadiazol-3-yl]-[1,3,5]triazine-2,4-diamine] | 1.14 |

Results, then the molecule that gave them:

| IC50 [µM] | Structure (SMILES) |
| --- | --- |
| 0.855 | Cc1cc(-c2nc(-c3nc(N)nc(N(C)c4ccccc4)n3)no2)n[nH]1 [Example 58, N-Methyl-6-[5-(5-methyl-1H-pyrazol-3-yl)-[1,2,4]oxadiazol-3-yl]-N-phenyl-[1,3,5]triazine-2,4-diamine] |
| 8.12 | CN(c1ccccc1)c1nc(N)nc(-c2noc(-c3c[nH]cn3)n2)n1 [Example 59, 6-[5-(1H-Imidazol-4-yl)-[1,2,4]oxadiazol-3-yl]-N-methyl-N-phenyl-[1,3,5]triazine-2,4-diamine] |
| 4.91 | CN(c1ccccc1)c1nc(N)nc(-c2noc(-c3ccc[nH]3)n2)n1 [Example 60, N-Methyl-N-phenyl-6-[5-(1H-pyrrol-2-yl)-[1,2,4]oxadiazol-3-yl]-[1,3,5]triazine-2,4-diamine] |
| 1.1 | Cc1ccc(-c2nc(-c3nc(N)nc(N(C)c4ccccc4)n3)no2)s1 [Example 62, N-Methyl-6-[5-(5-methyl-thiophen-2-yl)-[1,2,4]oxadiazol-3-yl]-N-phenyl-[1,3,5]triazine-2,4-diamine] |
| 3.38 | CN(c1ccccc1)c1nc(N)nc(-c2noc(-c3cccc4c3OCC4)n2)n1 [Example 63, 6-[5-(2,3-Dihydro-benzofuran-7-yl)-[1,2,4]oxadiazol-3-yl]-N-methyl-N-phenyl-[1,3,5]triazine-2,4-diamine] |
| 1.93 | CN(c1ccccc1)c1nc(N)nc(-c2noc(-c3cc4ccccc4o3)n2)n1 [Example 64, 6-(5-Benzofuran-2-yl-[1,2,4]oxadiazol-3-yl)-N-methyl-N-phenyl-[1,3,5]triazine-2,4-diamine] |
| 5.22 | CN(c1ccccc1)c1nc(N)nc(-c2noc(-c3ncc[nH]3)n2)n1 [Example 65, 6-(5-Imidazol-2-yl-[1,2,4]oxadiazol-3-yl)-N-methyl-N-phenyl-[1,3,5]triazine-2,4-diamine] |
| 1.68 | CN(c1ccccc1)c1nc(N)nc(-c2noc(C3CCCO3)n2)n1 (stereo not drawn) [Example 66, N-Methyl-N-phenyl-6-[5-(tetrahydro-furan-2-yl)-[1,2,4]oxadiazol-3-yl]-[1,3,5]triazine-2,4-diamine] |
| 1.37 | CN(C)CCN(c1ccccc1)c1nc(N)nc(-c2noc(-c3ccco3)n2)n1 [Example 69, N-(2-Dimethylamino-ethyl)-6-(5-furan-2-yl-[1,2,4]oxadiazol-3-yl)-N-phenyl-[1,3,5]triazine-2,4-diamine] |
| 1.02 | Nc1nc(-c2noc(-c3ccco3)n2)nc(N(CCO)c2ccccc2)n1 [Example 70, 2-{[4-Amino-6-(5-furan-2-yl-[1,2,4]oxadiazol-3-yl)-[1,3,5]triazin-2-yl]-phenyl-amino}-ethanol] |
| 1.49 | CCOC(=O)c1nc(-c2nc(N)nc(N(C)c3ccccc3)n2)no1 [Example 73, 3-[4-Amino-6-(methyl-phenyl-amino)-[1,3,5]triazin-2-yl]-[1,2,4]oxadiazole-5-carboxylic acid ethyl ester] |
| 1.41 | COc1ccsc1-c1nc(-c2nc(N)nc(N(C)c3ccccc3)n2)no1 [Example 74, 6-[5-(3-Methoxy-thiophen-2-yl)-[1,2,4]oxadiazol-3-yl]-N-methyl-N-phenyl-[1,3,5]triazine-2,4-diamine] |
| 1.19 | CNC(=O)c1ccc(-c2nc(-c3nc(N)nc(N(C)c4ccccc4)n3)no2)s1 [Example 75, 5-{3-[4-Amino-6-(methyl-phenyl-amino)-[1,3,5]triazin-2-yl]-[1,2,4]oxadiazol-5-yl}-thiophene-2-carboxylic acid methylamide] |
| 0.925 | COc1ncccc1-c1nc(-c2nc(N)nc(N(C)c3ccccc3)n2)no1 [Example 76, 6-[5-(2-Methoxy-pyridin-3-yl)-[1,2,4]oxadiazol-3-yl]-N-methyl-N-phenyl-[1,3,5]triazine-2,4-diamine] |
| 0.246 | COc1ccc(-c2nc(-c3nc(N)nc(N(C)c4ccccc4)n3)no2)c(OC)c1 [Example 77, 6-[5-(2,4-Dimethoxy-phenyl)-[1,2,4]oxadiazol-3-yl]-N-methyl-N-phenyl-[1,3,5]triazine-2,4-diamine] |
